Test results as given in ChEMBL document CHEMBL5038639, “Designed Peptide Inhibitors of STEP Phosphatase-GluA2 AMPA Receptor Interaction Enhance the Cognitive Performance in Rats” (J Med Chem, 2022).
The source made the active and inactive calls. No cut-off for these calls is given here. Square brackets hold non-standard residues; d marks the D form. Peptide text beside a SMILES is read from it. pY = N[C@@H](Cc1ccc(OP(=O)(O)O)cc1)C(=O)O

Legend:
Rattus norvegicus [1] = species on record: Rattus norvegicus; experiment: Antidepressant activity in Wistar rat model of scopolamine-induced depressive like behavior assessed as decrease in immobility time at 15 uM measured after 24 hrs by forced swimming test; assay type: functional, organism-based
Rattus norvegicus [2] = species on record: Rattus norvegicus; experiment: Antidepressant activity in Wistar rat model of scopolamine-induced depressive like behavior assessed as increased swimming time at 15 uM measured after 24 hrs by forced swimming test; assay type: functional, organism-based
Homo sapiens = species on record: Homo sapiens; experiment: Inhibition of GluA2-STEP32 C/S mutant (unknown origin) protein-protein interaction at 0.1 to 1 mM by Western blotting based pulldown assay; conditions: dose 0.1-1 mM
Hippocampus [3] = experiment: Effect on hippocampal population spike in Wistar rat assessed as increase in spike area and slope at 15 uM measured at 1 hr; assay type: functional, tissue-based
Rattus norvegicus [4] = species on record: Rattus norvegicus; experiment: Cognitive enhancing effect in Wistar rat model of scopolamine-induced short term memory impairment assessed as increase in spontaneous alteration at 15 uM measured by Y-maze method; assay type: functional, organism-based
[5] = target: T1, Tyrosine-protein phosphatase non-receptor type 1 (Homo sapiens) (UniProt P18031); experiment: Inhibition of […] (unknown origin) at 1 mM using pNPP as substrate
T1 sequence (whole entry): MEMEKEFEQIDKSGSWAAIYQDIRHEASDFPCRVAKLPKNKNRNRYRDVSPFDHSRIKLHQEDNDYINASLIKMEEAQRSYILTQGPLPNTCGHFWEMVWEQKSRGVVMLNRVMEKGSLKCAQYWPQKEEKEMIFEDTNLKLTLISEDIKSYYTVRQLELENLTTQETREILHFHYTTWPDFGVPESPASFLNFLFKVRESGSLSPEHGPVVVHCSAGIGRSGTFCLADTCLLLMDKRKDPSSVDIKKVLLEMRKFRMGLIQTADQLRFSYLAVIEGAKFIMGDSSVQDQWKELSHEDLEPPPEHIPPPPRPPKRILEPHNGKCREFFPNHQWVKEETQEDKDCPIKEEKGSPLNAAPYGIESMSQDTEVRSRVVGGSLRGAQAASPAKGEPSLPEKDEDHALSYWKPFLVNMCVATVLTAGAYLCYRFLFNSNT

Rattus norvegicus [6] = species on record: Rattus norvegicus; experiment: Anxiolytic activity in scopolamine-induced Wistar rat assessed as increase in time spent in open arm measured at 15 uM for 5 min by elevated plus maze test; assay type: functional, organism-based
Hippocampus [7] = experiment: Effect on hippocampal population spike in Wistar rat assessed as decrease in population spike area at 1.5 mM measured upto 3 hrs; assay type: functional, tissue-based; conditions: time hrs <=3
Hippocampus [8] = experiment: Effect on hippocampal population spike in Wistar rat assessed as increase in spike area and slope at 15 uM measured after 2 hrs; assay type: functional, tissue-based
HEK293 [9] = experiment: Inhibition of GluA2-STEP3 (unknown origin) protein-protein interaction expressed in HEK293 cells assessed as reduction in GluA2 dephosphorylation at pY876 residue at 0.1 mM incubated for 30 min by western blotting analysis; assay type: cell-based; conditions: Homo sapiens
HEK293 [10] = experiment: Inhibition of GluA2-STEP3 (unknown origin) protein-protein interaction expressed in HEK293 cells assessed as reduction in GluA2 dephosphorylation at pY876 residue at 1 mM incubated for 30 min by western blotting analysis; assay type: cell-based; conditions: Homo sapiens
[11] = target: T2, Tyrosine-protein phosphatase non-receptor type 2 (Homo sapiens) (UniProt P17706); experiment: Inhibition of TC-PTP (unknown origin) at 1 mM using pNPP as substrate
T2 sequence (whole entry): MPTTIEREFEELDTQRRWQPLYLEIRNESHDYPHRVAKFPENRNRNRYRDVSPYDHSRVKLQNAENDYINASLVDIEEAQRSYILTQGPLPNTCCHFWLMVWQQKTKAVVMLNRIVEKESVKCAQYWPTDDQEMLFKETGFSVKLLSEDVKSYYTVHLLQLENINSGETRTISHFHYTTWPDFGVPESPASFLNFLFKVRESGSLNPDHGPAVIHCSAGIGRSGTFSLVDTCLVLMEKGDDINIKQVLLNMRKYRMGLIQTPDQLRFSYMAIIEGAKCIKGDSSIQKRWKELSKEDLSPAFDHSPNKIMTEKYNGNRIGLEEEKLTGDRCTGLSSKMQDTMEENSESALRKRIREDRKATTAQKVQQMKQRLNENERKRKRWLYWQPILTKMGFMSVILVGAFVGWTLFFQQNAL

Rattus norvegicus [12] = species on record: Rattus norvegicus; experiment: Cognitive enhancing effect in Wistar rat model of scopolamine-induced working memory impairment assessed as reduction in number of working memory errors at 15 uM by Radial arm maze task; assay type: functional, organism-based
Rattus norvegicus [13] = species on record: Rattus norvegicus; experiment: Cognitive enhancing effect in Wistar rat model of scopolamine-induced reference memory impairment assessed as reduction in number of reference memory error at 15 uM by Radial arm maze task; assay type: functional, organism-based
Hippocampus [14] = experiment: Effect on hippocampal population spike in Wistar rat assessed as increase in amplitude at 15 uM measured after 3 hrs; assay type: functional, tissue-based
Rattus norvegicus [15] = species on record: Rattus norvegicus; experiment: Anxiolytic activity in scopolamine-induced Wistar rat assessed as increase in number of entries in open arm measured at 15 uM for 5 min by elevated plus maze test; assay type: functional, organism-based
Rattus norvegicus [16] = experiment: Cognitive enhancing effect in Wistar rat model of scopolamine-induced working memory impairment assessed as reduction in number of working memory errors at 5 mg/kg by Radial arm maze task; assay type: functional, organism-based
Rattus norvegicus [17] = experiment: Cognitive enhancing effect in Wistar rat model of scopolamine-induced short term memory impairment assessed as increase in spontaneous alteration at 5 mg/kg measured by Y-maze method; assay type: functional, organism-based

inhibition (Homo sapiens)	inhibition [5]	inhibition [11]	Molecule	Activity (Rattus norvegicus [1])	Activity (Rattus norvegicus [2])	Activity (Hippocampus [3])	Activity (Rattus norvegicus [4])	Activity (Rattus norvegicus [6])	Activity (Hippocampus [7])	Activity (Hippocampus [8])	inhibition (HEK293 [9])	inhibition (HEK293 [10])	Activity (Rattus norvegicus [12])	Activity (Rattus norvegicus [13])	Activity (Hippocampus [14])	Activity (Rattus norvegicus [15])	Activity (Rattus norvegicus [16])	Activity (Rattus norvegicus [17])
Active	Active	Active	CC(=O)N[C@@H](Cc1ccc(O)cc1)C(=O)NCC(=O)N[C@@H](CCCNC(=N)N)C(=O)N[C@@H](CCCCN)C(=O)N[C@@H](CCCCN)C(=O)N[C@@H](CCCNC(=N)N)C(=O)N[C@@H](CCCNC(=N)N)C(=O)N[C@@H](CCC(N)=O)C(=O)N[C@@H](CCCNC(=N)N)C(=O)N[C@@H](CCCNC(=N)N)C(=O)N[C@@H](CCCNC(=N)N)C(=O)N[C@@H](C)C(=O)N[C@H](C(=O)N[C@@H](Cc1ccc(O)cc1)C(=O)N[C@@H](CCCCN)C(=O)N[C@@H](CCC(=O)O)C(=O)NCC(=O)N[C@@H](Cc1ccc(O)cc1)C(=O)N[C@@H](CC(N)=O)C(=O)N[C@H](C(=O)N[C@@H](Cc1ccc(OP(=O)(O)O)cc1)C(=O)NCC(N)=O)C(C)C)[C@@H](C)O (Ac-YGRKKRRQRRRATYKEGYNV[pY]G-NH2)	Active	Active		Active	Active			Active		Active	Active		Active		
Active	Active	Active	CC(=O)N[C@@H](Cc1ccc(O)cc1)C(=O)NCC(=O)N[C@@H](CCCNC(=N)N)C(=O)N[C@@H](CCCCN)C(=O)N[C@@H](CCCCN)C(=O)N[C@@H](CCCNC(=N)N)C(=O)N[C@@H](CCCNC(=N)N)C(=O)N[C@@H](CCC(N)=O)C(=O)N[C@@H](CCCNC(=N)N)C(=O)N[C@@H](CCCNC(=N)N)C(=O)N[C@@H](CCCNC(=N)N)C(=O)N[C@@H](CCC(=O)O)C(=O)NCC(=O)N[C@@H](Cc1ccc(O)cc1)C(=O)N[C@@H](CC(N)=O)C(=O)N[C@H](C(=O)N[C@@H](Cc1ccc(OP(=O)(O)O)cc1)C(N)=O)C(C)C (Ac-YGRKKRRQRRREGYNV[pY]-NH2)	Active	Active		Active	Active			Active		Active	Active		Active		

The next lines start with the molecule.

Molecule	inhibition (Homo sapiens)	inhibition [5]	inhibition [11]	Activity (Rattus norvegicus [1])	Activity (Rattus norvegicus [2])	Activity (Hippocampus [3])	Activity (Rattus norvegicus [4])	Activity (Rattus norvegicus [6])	Activity (Hippocampus [7])	Activity (Hippocampus [8])	inhibition (HEK293 [9])	inhibition (HEK293 [10])	Activity (Rattus norvegicus [12])	Activity (Rattus norvegicus [13])	Activity (Hippocampus [14])	Activity (Rattus norvegicus [15])	Activity (Rattus norvegicus [16])	Activity (Rattus norvegicus [17])
CC(=O)N[C@@H](Cc1ccc(O)cc1)C(=O)NCC(=O)N[C@@H](CCCNC(=N)N)C(=O)N[C@@H](CCCCN)C(=O)N[C@@H](CCCCN)C(=O)N[C@@H](CCCNC(=N)N)C(=O)N[C@@H](CCCNC(=N)N)C(=O)N[C@@H](CCC(N)=O)C(=O)N[C@@H](CCCNC(=N)N)C(=O)N[C@@H](CCCNC(=N)N)C(=O)N[C@@H](CCCNC(=N)N)C(=O)N[C@@H](CCC(=O)O)C(=O)NCC(=O)N[C@@H](Cc1ccc(O)cc1)C(=O)N[C@@H](CC(N)=O)C(=O)N[C@H](C(=O)N[C@@H](Cc1ccc(OP(=O)(O)O)cc1)C(=O)N[C@@H](CCC(=O)O)C(N)=O)C(C)C (Ac-YGRKKRRQRRREGYNV[pY]E-NH2)	Active	Active	Active	Active	Active	Active	Active	Active	Active	inactive	Active	Active	Active	Active	Active	Active		
Ac-YGRKKRRQRRRATYKEGYNVYG-NH2		Active	Active	Active	Active		Active	Active					Active	Active		Active		
COc1cc2c(cc1OC)C(=O)C(CC1CCN(Cc3ccccc3)CC1)C2 (centres undefined)																	Active	Active
